Values of other authors, collected in US9241502B2, “Animal feed compositions capable of reducing the incidence of fescue toxicosis in mammals” (priority 2005, dated 2016).

System: lactating dairy cattle
Conditions: as a single ingredient

Substance: Vitamin E
- effectiveness against fescue toxicosis: not found to be effective
